Data published in patent US20260097126A1, “PHARMACEUTICAL FORMULATIONS AND METHODS FOR THE TREATMENT OF METABOLIC AND LIVER DISORDERS” (priority 2022, published 2026).
Numbered stars: 1 amine (or outer) side, 2 acyl side, 3 side chain; on linkers, the order of the positions; unused ones are H or OH. Square brackets hold non-standard residues; d marks the D form. Side chains are listed from the residue outwards. Peptide text beside a SMILES is read from it. * marks the point of attachment. Nonadecanoyl(19-PO3H2) = O=C(CCCCCCCCCCCCCCCCCCP(=O)(O)O)*; γGlu = O=C(O)[C@H](CCC(=O)[*:2])N[*:1]; AEEA = NCCOCCOCC(=O)O; Aib = CC(C)(N)C(=O)O

Experiments:
GIP receptor [1] = molecular target: T1, GIP receptor (Homo sapiens, UniProt P48546); assay: TagLite binding assay, GIP receptor; settings: read-out: GIP receptor IC 50
T1 sequence (P48546 22-466): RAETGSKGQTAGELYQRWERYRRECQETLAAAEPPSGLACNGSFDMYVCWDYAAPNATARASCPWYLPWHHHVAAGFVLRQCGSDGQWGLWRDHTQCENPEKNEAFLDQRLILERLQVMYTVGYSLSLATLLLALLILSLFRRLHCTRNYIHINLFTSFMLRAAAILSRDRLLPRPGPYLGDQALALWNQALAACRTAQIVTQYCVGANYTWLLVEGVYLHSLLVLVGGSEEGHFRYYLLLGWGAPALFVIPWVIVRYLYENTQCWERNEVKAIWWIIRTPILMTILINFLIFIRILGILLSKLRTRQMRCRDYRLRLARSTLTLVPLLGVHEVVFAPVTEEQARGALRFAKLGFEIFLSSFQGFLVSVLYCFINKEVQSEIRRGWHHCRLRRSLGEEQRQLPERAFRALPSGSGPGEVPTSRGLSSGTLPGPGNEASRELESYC

[2] = system: mice fed a Gubra amylin NASH (GAN) diet; assay: Biological effects in GAN diet-induced NASH mice; type: in vivo; settings: after two weeks; for Gal-3 Relative / Gal-3 Total: liver Galectin-3, histological quantitative assessment; for α-SMA Relative / α-SMA Total: liver alpha-smooth muscle actin, histological quantitative assessment; for TG Relative / TG Total: liver triglycerides
Method: NASH was induced in mice by feeding mice a Gubra amylin NASH (GAN) diet as described in Boland et al. World J Gastroenterol. 2019, 25(33): 4904-4920. One week prior to administration of a first dose of compounds, the mice were weighed and randomized, and their food intake was measured. Mice were randomly assigned to dosing groups, with twelve mice per group. […] Compound dose titration (nmol/kg): 0.6 (day 0), 1.2 (day 1), 2.4 (day 2), 4.8 (day 3), 4.8 (day 4), 12 (day 5), 30.0 (from day 6).
After two weeks, animals were sacrificed. Plasma enzymes (P-ALT (alanine aminotransferase) and P-AST (aspartate aminotransferase)), total plasma triglycerides, and total plasma cholesterol were measured, and terminal necropsy of each liver was carried out, determining relative liver weight as a percentage of body weight, assaying total liver biochemistry including total liver triglycerides, plasma insulin and total liver cholesterol, as well as histological evaluation of Galectin-3, and alpha-smooth muscle actin.

GLP-1 receptor [3] = molecular target: T2, GLP-1 receptor (Homo sapiens, UniProt P43220); assay: TagLite binding assay, GLP-1 receptor; settings: read-out: GLP-1 receptor IC 50
GLP-1 receptor [4] = molecular target: T2, GLP-1 receptor; assay: HSA modulated binding assay, GLP-1 receptor; settings: binding with 2% HSA to binding with 0% HSA
GIP receptor [5] = molecular target: T1, GIP receptor; assay: HSA modulated binding assay, GIP receptor; settings: binding with 2% HSA to binding with 0% HSA
[6] = Pharmacokinetic study of Compounds 4, 14, 15, 17 in monkeys; settings: cynomolgus monkey, plasma, sc, 0.2 mg/kg
Method: The formulations were administered to cynomolgus monkeys at a dose of 0.2 mg/kg. Plasma concentration versus time data was collected and pharmacokinetic values determined.

T2 sequence (P43220 24-463): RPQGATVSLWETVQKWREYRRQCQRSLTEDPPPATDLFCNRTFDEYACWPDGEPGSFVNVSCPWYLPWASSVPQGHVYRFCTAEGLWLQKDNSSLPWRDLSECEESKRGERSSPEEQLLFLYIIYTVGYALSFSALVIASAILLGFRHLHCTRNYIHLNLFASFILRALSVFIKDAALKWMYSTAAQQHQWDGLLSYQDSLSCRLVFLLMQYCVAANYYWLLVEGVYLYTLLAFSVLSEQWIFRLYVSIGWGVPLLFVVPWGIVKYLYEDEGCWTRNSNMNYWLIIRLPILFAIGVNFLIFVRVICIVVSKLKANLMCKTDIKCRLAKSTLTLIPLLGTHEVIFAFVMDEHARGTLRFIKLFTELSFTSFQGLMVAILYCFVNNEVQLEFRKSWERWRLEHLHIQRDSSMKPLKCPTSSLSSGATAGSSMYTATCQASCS

Compound	IC50 (GIP receptor [1]) [nM]	liver Galectin-3 compared to tirzepatide or vehicle (in words) [2]	liver alpha-smooth muscle actin compared to tirzepatide (in words) [2]	liver triglycerides compared to tirzepatide or vehicle (in words) [2]	Gal-3 Relative [2] [percent fractional area]	Gal-3 Total [2] [mg]	α-SMA Relative [2] [percent fractional area]	α-SMA Total [2] [mg]	TG Relative [2] [mg per/g liver]	TG Total [2] [mg per/liver]	IC50 (GLP-1 receptor [3]) [nM]	GLP-1 receptor Ratio of HSA/No HSA (GLP-1 receptor [4])	GIP receptor Ratio of HSA/No HSA (GIP receptor [5])	AUC(0-inf) [6] [µg·h/mL]	AUC(0-t) [6] [µg·h/mL]	CL/F [6] [mL/day/kg]	Cmax [6] [ng/mL]	Tmax [6] [h]	Vd/F [6] [L/kg]	half-life [6] [h]
CC[C@H](C)[C@H](NC(=O)[C@H](CC(C)C)NC(=O)[C@H](Cc1c[nH]c2ccccc12)NC(=O)[C@H](CCC(N)=O)NC(=O)[C@@H](NC(=O)[C@H](Cc1ccccc1)NC(=O)[C@H](C)NC(=O)[C@H](CCCCNC(=O)COCCOCCNC(=O)COCCOCCNC(=O)CC[C@H](NC(=O)CCCCCCCCCCCCCCCCCCC(=O)O)P(=O)(O)O)NC(=O)[C@H](CCC(N)=O)NC(=O)[C@H](C)NC(=O)[C@@H](NC(=O)[C@H](CCCCN)NC(=O)[C@H](CC(=O)O)NC(=O)[C@H](CC(C)C)NC(=O)C(C)(C)NC(=O)[C@@H](NC(=O)[C@H](CO)NC(=O)[C@H](Cc1ccc(O)cc1)NC(=O)[C@H](CC(=O)O)NC(=O)[C@H](CO)NC(=O)[C@@H](NC(=O)[C@H](Cc1ccccc1)NC(=O)[C@@H](NC(=O)CNC(=O)[C@H](CCC(=O)O)NC(=O)C(C)(C)NC(=O)[C@@H](N)Cc1ccc(O)cc1)[C@@H](C)O)[C@@H](C)O)[C@@H](C)CC)[C@@H](C)CC)C(C)C)C(=O)N[C@@H](C)C(=O)NCC(=O)NCC(=O)N1CCC[C@H]1C(=O)N[C@@H](CO)C(=O)N[C@@H](CO)C(=O)NCC(=O)N[C@@H](C)C(=O)N1CCC[C@H]1C(=O)N1CCC[C@H]1C(=O)N1CCC[C@H]1C(=O)N[C@@H](CO)C(N)=O [Compound 8]	223	lower relative and total liver Galectin-3 as compared to administration of tirzepatide or vehicle alone	lower relative and total liver alpha-smooth muscle actin as compared to administration of tirzepatide	lower relative and total liver triglycerides as compared to administration of tirzepatide or vehicle alone	5.8 ± 0.6	117 ± 12	4.3 ± 0.5	83 ± 8	40 ± 3	75 ± 7	288	–	–	–	–	–	–	–	–	–
CC[C@H](C)[C@H](NC(=O)[C@H](CC(C)C)NC(=O)[C@H](Cc1c[nH]c2ccccc12)NC(=O)[C@H](CCC(N)=O)NC(=O)[C@@H](NC(=O)[C@H](Cc1ccccc1)NC(=O)[C@H](C)NC(=O)[C@H](CCCCNC(=O)COCCOCCNC(=O)COCCOCCNC(=O)CC[C@H](NC(=O)CCCCCCCCCCCCCCCCCCP(=O)(O)OCc1ccccc1)P(=O)(O)O)NC(=O)[C@H](CCC(N)=O)NC(=O)[C@H](C)NC(=O)[C@@H](NC(=O)[C@H](CCCCN)NC(=O)[C@H](CC(=O)O)NC(=O)[C@H](CC(C)C)NC(=O)C(C)(C)NC(=O)[C@@H](NC(=O)[C@H](CO)NC(=O)[C@H](Cc1ccc(O)cc1)NC(=O)[C@H](CC(=O)O)NC(=O)[C@H](CO)NC(=O)[C@@H](NC(=O)[C@H](Cc1ccccc1)NC(=O)[C@@H](NC(=O)CNC(=O)[C@H](CCC(=O)O)NC(=O)C(C)(C)NC(=O)[C@@H](N)Cc1ccc(O)cc1)[C@@H](C)O)[C@@H](C)O)[C@@H](C)CC)[C@@H](C)CC)C(C)C)C(=O)N[C@@H](C)C(=O)NCC(=O)NCC(=O)N1CCC[C@H]1C(=O)N[C@@H](CO)C(=O)N[C@@H](CO)C(=O)NCC(=O)N[C@@H](C)C(=O)N1CCC[C@H]1C(=O)N1CCC[C@H]1C(=O)N1CCC[C@H]1C(=O)N[C@@H](CO)C(N)=O [Compound 12]	–	lower relative and total liver Galectin-3 as compared to administration of tirzepatide or vehicle alone	lower relative and total liver alpha-smooth muscle actin as compared to administration of tirzepatide	lower relative and total liver triglycerides as compared to administration of tirzepatide or vehicle alone	5.7 ± 0.5	113 ± 10	4.4 ± 0.6	84 ± 8	35 ± 3	63 ± 5	–	5.26	1.70	–	–	–	–	–	–	–
CC[C@H](C)[C@H](NC(=O)[C@H](CC(C)C)NC(=O)[C@H](Cc1c[nH]c2ccccc12)NC(=O)[C@H](CCC(N)=O)NC(=O)[C@@H](NC(=O)[C@H](Cc1ccccc1)NC(=O)[C@H](C)NC(=O)[C@H](CCCCNC(=O)COCCOCCNC(=O)COCCOCCNC(=O)CC[C@H](NC(=O)CCCCCCCCCCCCCCCCCCP(=O)(O)O)C(=O)O)NC(=O)[C@H](CCC(N)=O)NC(=O)[C@H](C)NC(=O)[C@@H](NC(=O)[C@H](CCCCN)NC(=O)[C@H](CC(=O)O)NC(=O)[C@H](CC(C)C)NC(=O)C(C)(C)NC(=O)[C@@H](NC(=O)[C@H](CO)NC(=O)[C@H](Cc1ccc(O)cc1)NC(=O)[C@H](CC(=O)O)NC(=O)[C@H](CO)NC(=O)[C@@H](NC(=O)[C@H](Cc1ccccc1)NC(=O)[C@@H](NC(=O)CNC(=O)[C@H](CCC(=O)O)NC(=O)C(C)(C)NC(=O)[C@@H](N)Cc1ccc(O)cc1)[C@@H](C)O)[C@@H](C)O)[C@@H](C)CC)[C@@H](C)CC)C(C)C)C(=O)N[C@@H](C)C(=O)NCC(=O)NCC(=O)N1CCC[C@H]1C(=O)N[C@@H](CO)C(=O)N[C@@H](CO)C(=O)NCC(=O)N[C@@H](C)C(=O)N1CCC[C@H]1C(=O)N1CCC[C@H]1C(=O)N1CCC[C@H]1C(=O)N[C@@H](CO)C(N)=O [Compound 14]	–	–	–	–	–	–	–	–	–	–	–	–	–	179	178	28.6	1430	24	0.104	60.9
CC[C@H](C)[C@H](NC(=O)[C@H](CC(C)C)NC(=O)[C@H](Cc1c[nH]c2ccccc12)NC(=O)[C@H](CCC(N)=O)NC(=O)[C@@H](NC(=O)[C@H](Cc1ccccc1)NC(=O)[C@H](C)NC(=O)[C@H](CCC(N)=O)NC(=O)[C@H](CCC(N)=O)NC(=O)[C@H](C)NC(=O)[C@@H](NC(=O)[C@H](CCCCNC(=O)COCCOCCNC(=O)COCCOCCNC(=O)CC[C@H](NC(=O)CCCCCCCCCCCCCCCCCCP(=O)(O)O)C(=O)O)NC(=O)[C@H](CC(=O)O)NC(=O)[C@H](CC(C)C)NC(=O)C(C)(C)NC(=O)[C@@H](NC(=O)[C@H](CO)NC(=O)[C@H](Cc1ccc(O)cc1)NC(=O)[C@H](CC(=O)O)NC(=O)[C@H](CO)NC(=O)[C@@H](NC(=O)[C@H](Cc1ccccc1)NC(=O)[C@@H](NC(=O)CNC(=O)[C@H](CCC(=O)O)NC(=O)C(C)(C)NC(=O)[C@@H](N)Cc1ccc(O)cc1)[C@@H](C)O)[C@@H](C)O)[C@@H](C)CC)[C@@H](C)CC)C(C)C)C(=O)N[C@@H](C)C(=O)NCC(=O)NCC(=O)N1CCC[C@H]1C(=O)N[C@@H](CO)C(=O)N[C@@H](CO)C(=O)NCC(=O)N[C@@H](C)C(=O)N1CCC[C@H]1C(=O)N1CCC[C@H]1C(=O)N1CCC[C@H]1C(=O)N[C@@H](CO)C(N)=O [Compound 15] (H-Y[Aib]EGTFTSDYSI[Aib]LDK([AEEA-AEEA-γGlu-Nonadecanoyl(19-PO3H2)])IAQQAFVQWLIAGGPSSGAPPPS-NH2)	–	–	–	–	–	–	–	–	–	–	–	–	–	227	221	21.4	2260	18.7	0.114	89.3
CC[C@H](C)[C@H](NC(=O)[C@H](CC(C)C)NC(=O)[C@H](Cc1c[nH]c2ccccc12)NC(=O)[C@H](CCC(N)=O)NC(=O)[C@@H](NC(=O)[C@H](Cc1ccccc1)NC(=O)[C@H](C)NC(=O)[C@H](CCCCNC(=O)COCCOCCNC(=O)COCCOCCNC(=O)CC[C@H](NC(=O)CCCCCCCCCCCCCCCCCCP(=O)(O)O)C(=O)O)NC(=O)[C@H](CCC(N)=O)NC(=O)[C@H](C)NC(=O)[C@@H](NC(=O)[C@H](CCCCN)NC(=O)[C@H](CC(=O)O)NC(=O)[C@H](CC(C)C)NC(=O)C(C)(C)NC(=O)[C@@H](NC(=O)[C@H](CO)NC(=O)[C@H](Cc1ccc(O)cc1)NC(=O)[C@H](CC(=O)O)NC(=O)[C@H](CO)NC(=O)[C@@H](NC(=O)[C@H](Cc1ccccc1)NC(=O)[C@@H](NC(=O)CNC(=O)[C@H](CCC(=O)O)NC(=O)C(C)(C)NC(=O)[C@@H](N)Cc1ccc(O)cc1)[C@@H](C)O)[C@@H](C)O)[C@@H](C)CC)C(C)C)C(C)C)C(=O)N[C@@H](CCCNC(=N)N)C(=O)NCC(=O)NCC(=O)N1CCC[C@H]1C(=O)N[C@@H](CO)C(=O)N[C@@H](CO)C(=O)NCC(=O)N[C@@H](C)C(=O)N1CCC[C@H]1C(=O)N1CCC[C@H]1C(=O)N1CCC[C@H]1C(=O)N[C@@H](CO)C(N)=O [Compound 17] (H-Y[Aib]EGTFTSDYSI[Aib]LDKVAQK([AEEA-AEEA-γGlu-Nonadecanoyl(19-PO3H2)])AFVQWLIRGGPSSGAPPPS-NH2)	–	–	–	–	–	–	–	–	–	–	–	–	–	346	316	14.2	1980	28	0.113	134
